Reference: ChEMBL document CHEMBL2203134, “Discovery of XL888: a novel tropane-derived small molecule inhibitor of HSP90” (Bioorg Med Chem Lett, 2012)
Values after ≈ are worked out from the molar mass of the structure shown. Active and inactive are the calls of the source. No cut-off for these calls is given here.

Key:
[1] = Half life in rat at 2.5 mg/kg, iv; assay type: ADME, organism-based; parameters: dose 2.5 mg/kg, route intravenous; details: in vivo
Rattus norvegicus [2] = test: Dose normalized AUC in rat at 2.5 mg/kg, iv; assay type: ADME, organism-based; parameters: dose 2.5 mg/kg, route intravenous; details: in vivo
[3] = Oral bioavailability in rat at 2.5 mg/kg; assay type: ADME, organism-based; details: in vivo
[4] = Kinetic solubility of the compound; assay type: physicochemical; details: read-out: Kinetic_solubility
[5] = Drug metabolism in human liver microsomes at 15 uM after 30 mins; assay type: ADME, Microsome; details: read-out: Drug metabolism
[6] = Apparent permeability across MDCK cells; assay type: ADME, cell-based, Canis lupus familiaris; details: dog
[7] = Clearance in rat at 2.5 mg/kg, iv; assay type: ADME, organism-based; parameters: dose 2.5 mg/kg, route intravenous; details: in vivo
[8] = Drug metabolism in mouse liver microsomes at 15 uM after 30 mins; assay type: ADME, Microsome; details: read-out: Drug metabolism
Rattus norvegicus [9] = test: Dose normalized AUC in iv dosed rat; assay type: ADME, organism-based; details: in vivo
[10] = Clearance in iv dosed rat; assay type: ADME, organism-based; details: in vivo
[11] = Half life in iv dosed rat; assay type: ADME, organism-based; details: in vivo
Heat shock protein HSP90 [12] = biological target: T1, Heat shock protein HSP90 (Homo sapiens, UniProt P07900+P08238); test: Displacement of biotinylated geldanamycin from human His-tagged Hsp90 by TR-FRET assay; assay type: protein assay
Heat shock protein HSP90 [13] = biological target: T1, Heat shock protein HSP90; test: Inhibition of Hsp90 in human A549 cells assessed as Raf1 degradation after 24 hrs by Western blot analysis; assay type: cell-based
[14] = Oral bioavailability in rat; assay type: ADME, organism-based; details: in vivo
Heat shock protein HSP90 [15] = biological target: T1, Heat shock protein HSP90; test: Inhibition of Hsp90 in human NCI-N87 cells assessed as Her2 degradation after 24 hrs by Western blot analysis; assay type: cell-based
[16] = Clearance in rat at 5 mg/kg, iv; assay type: ADME, organism-based; parameters: dose 5 mg/kg, route intravenous; details: in vivo
Rattus norvegicus [17] = test: Dose normalized AUC in rat at 5 mg/kg, iv; assay type: ADME, organism-based; parameters: dose 5 mg/kg, route intravenous; details: in vivo
[18] = Oral bioavailability in rat at 5 mg/kg; assay type: ADME, organism-based; details: in vivo
[19] = Half life in rat at 5 mg/kg, iv; assay type: ADME, organism-based; parameters: dose 5 mg/kg, route intravenous; details: in vivo
Mus musculus [20] = test: Inhibition of Hsp90 in human COLO205 cells xenografted in mouse assessed as Her2 degradation at 100 mg/kg administered QD for 2 days measured 8 hrs post-last dose; assay type: functional; details: COLO 205
Mus musculus [21] = test: Inhibition of Hsp90 in human COLO205 cells xenografted in mouse assessed as Raf1 degradation at 100 mg/kg administered QD for 2 days measured 8 hrs post-last dose; assay type: functional; details: COLO 205

Row | SMILES | half-life [1] [h] | AUC/dose (Rattus norvegicus [2]) [µM·kg·h/mg] | bioavailability [3] [%] | Papp [6] [×10⁻⁶ cm/s] | clearance [7] [mL/min/kg] | IC50 (Heat shock protein HSP90 [12]) [nM] | IC50 (Heat shock protein HSP90 [13]) [nM] | IC50 (Heat shock protein HSP90 [15]) [nM] | further results
1 | COc1cccc(C(=O)NC2CC3CCC(C2)N3c2ccc(C(=O)NCc3ccccc3)cn2)c1C (stereo not given) | 0.72 | 0.9 | 4 | 50.5 | 38.1 | – | – | – | solubility kinetic [4]: 4.1 µM (≈ 1.99 µg/mL); metabolised at 0.5 h, 15 µM [5]: 64%; metabolised at 0.5 h, 15 µM [8]: 79%
2 | COc1cccc(C(=O)NC2CC3CCC(C2)N3c2ccc(C(=O)N[C@@H](C)c3ccc(N4CCN(C)CC4)cc3)cn2)c1C (stereo not given in full) | – | – | – | 6.3 | – | 200 | 374 | – | AUC/dose (Rattus norvegicus [9]): 0.71 µM·kg·h/mg; clearance [10]: 34.3 mL/min/kg; half-life [11]: 6.4 h; solubility kinetic [4]: 447 µM (≈ 267 µg/mL); metabolised at 0.5 h, 15 µM [5]: 37%; bioavailability [14]: 30%
3 | CC(=O)c1ccc(N2C3CCC2CC(NC(=O)c2ccc(C(N)=O)c(NCC4CC4)c2)C3)nc1 (stereo not given) | 7 | 0.5 | 42 | 44.2 | 71.5 | 40 | – | 182 | –
4 | COc1cccc(C(=O)NC2CC3CCC(C2)N3c2ccc(C(=O)N[C@H](C)c3ccccc3)cn2)c1C (stereo not given in full) | – | – | – | – | – | 7450 | > 10000 | – | –
5 | Cc1cc(C(N)=O)c(NC2CCCC2)cc1C(=O)NC1CC2CCC(C1)N2c1ccc(C(=O)C2CC2)cn1 (stereo not given) | 1.1 | 2.26 | 28 | 14.6 | 14.5 | 27 | – | 316 | –
6 | Cc1cc(C(N)=O)ccc1C(=O)NC1CC2CCC(C1)N2c1ccc(C(=O)NCc2ccccc2)cn1 (stereo not given) | – | – | – | 0.21 | – | 598 | 2700 | – | –
7 | CC[C@H](C)Nc1cc(C(=O)NC2CC3CCC(C2)N3c2ccc(C(=O)C3CC3)cn2)c(C)cc1C(N)=O (stereo not given in full) | 1 | 0.87 | 20 | 24 | 38.5 | – | – | 252 | –
8 | Cc1cc(C(N)=O)c(NCC2CC2)cc1C(=O)NC1CC2CCC(C1)N2c1ccc(C(=O)C2CC2)cn1 (stereo not given) | 0.9 | 1.7 | 51 | 22.3 | 19.7 | 25 | – | 245 | –
9 | C[C@H](NC(=O)c1ccc(N2C3CCC2CC(NC(=O)c2ccc(C(N)=O)c(Nc4ccccc4)c2)C3)nc1)c1ccc(N2CCN(C)CC2)cc1 (stereo not given in full) | – | – | – | 0.32 | – | 260 | 105 | – | –
10 | Cc1cc(C(N)=O)c(NC(C)C)cc1C(=O)NC1CC2CCC(C1)N2c1ccc(C(=O)C2CC2)cn1 (stereo not given) | 1.5 | 0.57 | 33 | 20.6 | 63.2 | 21 | – | 130 | –
11 | CCC(CC)Nc1cc(C(=O)NC2CC3CCC(C2)N3c2ccc(C(C)=O)cn2)ccc1C(N)=O (stereo not given) | – | – | – | 67.6 | – | 38 | – | 52 | clearance [16]: 28.5 mL/min/kg; AUC/dose (Rattus norvegicus [17]): 1.22 µM·kg·h/mg; bioavailability [18]: 5%; half-life [19]: 0.5 h
12 | C[C@H](NC(=O)c1ccc(N2C3CCC2CC(NC(=O)c2ccc(C(N)=O)c(NCC4CC4)c2)C3)nc1)c1ccc(N2CCN(C)CC2)cc1 (stereo not given in full) | – | – | – | 0.15 | – | 80 | 42 | – | clearance [10]: 157 mL/min/kg
13 | COc1cccc(C(=O)NC2CC3CCC(C2)N3c2ccc(C(=O)N[C@@H](C)c3ccccc3)cn2)c1C (stereo not given in full) | – | – | – | 38 | – | 126 | 421 | – | solubility kinetic [4]: 2.2 µM (≈ 1.1 µg/mL); metabolised at 0.5 h, 15 µM [5]: 68%
14 | CCNC(=O)c1ccc(N2C3CCC2CC(NC(=O)c2ccc(C(N)=O)c(NCC4CC4)c2)C3)nc1 (stereo not given) | – | – | – | 32.4 | – | 104 | – | 2170 | –
15 | Cc1cc(CO)ccc1C(=O)NC1CC2CCC(C1)N2c1ccc(C(=O)NCc2ccccc2)cn1 (stereo not given) | – | – | – | 3 | – | 128 | 1900 | – | –
16 | O=C(NCc1ccccc1)c1ccc(N2C3CCC2CC(NC(=O)c2ccc(CO)cc2)C3)nc1 (stereo not given) | – | – | – | 2.5 | – | 322 | 5400 | – | –
17 | NC(=O)c1ccc(C(=O)NC2CC3CCC(C2)N3c2ccc(C(=O)NCc3ccccc3)cn2)cc1 (stereo not given) | – | – | – | 0.06 | – | 445 | 5200 | – | –
18 | CCCNc1cc(C(=O)NC2CC3CCC(C2)N3c2ccc(C(=O)C3CC3)cn2)c(C)cc1C(N)=O (stereo not given) | – | – | – | 23.4 | – | 24 | – | 1122 | –
19 | CO[C@H]1/C=C\C=C(/C)C(=O)NC2=CC(=O)C(NCCN(C)C)=C(C[C@@H](C)C[C@H](OC)[C@H](O)[C@@H](C)/C=C(\C)[C@@H]1OC(N)=O)C2=O [ALVESPIMYCIN] | – | – | – | – | – | – | – | – | inhibition (Mus musculus [20]): inactive; inhibition in vivo at 100 mg/kg (Mus musculus [21]): 84%
20 | CCC(CC)Nc1cc(C(=O)NC2CC3CCC(C2)N3c2ccc(C(=O)C3CC3)cn2)ccc1C(N)=O (stereo not given) | – | – | – | 14.1 | – | 86 | – | 117 | clearance [16]: 39.7 mL/min/kg; AUC/dose (Rattus norvegicus [17]): 0.78 µM·kg·h/mg; bioavailability [18]: 11%; half-life [19]: 0.5 h
21 | Cc1cc(C(=O)NC2CC3CCC(C2)N3c2ccc(C(=O)N[C@@H](C)c3ccc(N4CCN(C)CC4)cc3)cn2)c(C)cc1C(N)=O (stereo not given in full) | – | – | – | < 0.01 | – | 53 | 2900 | – | –
22 | C[C@H](NC(=O)c1ccc(N2C3CCC2CC(NC(=O)c2ccc(C(N)=O)c(NC4CCC4)c2)C3)nc1)c1ccc(N2CCN(C)CC2)cc1 (stereo not given in full) | – | – | – | 0.46 | – | 160 | 59 | – | –
23 | CCC(CC)Nc1cc(C(=O)NC2CC3CCC(C2)N3c2ccc(C(C)=O)cn2)c(C)cc1C(N)=O (stereo not given) | – | – | – | – | – | 28 | – | 44 | clearance [16]: 51.8 mL/min/kg; AUC/dose (Rattus norvegicus [17]): 0.6 µM·kg·h/mg; bioavailability [18]: 4%; half-life [19]: 1.7 h
24 | NC(=O)c1ccc(C(=O)NC2CC3CCC(C2)N3c2ccc(C(=O)NC3CCCC3)cn2)cc1NCC1CC1 (stereo not given) | 0.6 | 0.49 | 0 | 4.8 | 63.5 | 89 | – | 351 | –
25 | CCC(CC)Nc1cc(C(=O)NC2CC3CCC(C2)N3c2ccc(C(=O)C3CC3)cn2)c(C)cc1C(N)=O (stereo not given) | 1.8 | 1.04 | 29 | 14.3 | 30.8 | 25 | – | 82 | –
26 | COc1cccc(C(=O)NC2CC3CCC(C2)N3c2ccc(C(=O)NCc3ccc(N4CCN(C)CC4)cc3)cn2)c1C (stereo not given) | – | – | – | 7.4 | – | 108 | 579 | – | AUC/dose (Rattus norvegicus [9]): 0.23 µM·kg·h/mg; clearance [10]: 112 mL/min/kg; half-life [11]: 6.5 h; solubility kinetic [4]: 285 µM (≈ 166 µg/mL); metabolised at 0.5 h, 15 µM [5]: 28%; bioavailability [14]: 28%
27 | Cc1cc(C(=O)NC2CC3CCC(C2)N3c2ccc(C(=O)NCc3ccccc3)cn2)c(C)cc1C(N)=O (stereo not given) | – | – | – | 3 | – | – | > 10000 | – | –
28 | CC(C)C(=O)c1ccc(N2C3CCC2CC(NC(=O)c2ccc(C(N)=O)c(NCC4CC4)c2)C3)nc1 (stereo not given) | – | – | – | – | – | 1140 | – | 1610 | –
29 | NC(=O)c1ccc(C(=O)NC2CC3CCC(C2)N3c2ccc(C(=O)C3CC3)cn2)cc1NCC1CC1 (stereo not given) | 22 | 3.7 | 41 | 50.3 | 8.43 | 120 | – | 494 | –
